# Data reported in article PMC9490060, “Synthesis and evaluation of anticancer activity of quillaic acid derivatives: A cell cycle arrest and apoptosis inducer through NF-κB and MAPK pathways” (Frontiers in Chemistry, 2022).
# How the values were obtained:
# [1] = test system: HCT116 (human colorectal cancer cell line); assay: MTT anti-proliferative assay, HCT116; format: cell-based; details: means ± SD, n = 3
# In short: (§1)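 Cells seeded at 1 × 10^4–1.2 × 10^4 per well were allowed to adhere 24 h, then exposed 48 h at 37 °C, 5% CO2 to compound at 1.25, 2.5, 5 and 10 μM (DMSO ≤0.1%). MCF-7 and HepG2 were grown in DMEM, HCT116 and BEL7402 in RPMI 1640, each with 10% FBS. MTT (final 2 mg/ml) was added for 4 h; formazan was dissolved in DMSO and read at 492 nm.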
# [2] = test system: BEL7402 (human hepatocellular carcinoma cell line); assay: MTT anti-proliferative assay, BEL7402; format: cell-based; details: means ± SD, n = 3
# In short: as §1
# [3] = Stability under pharmacological experimental conditions (RPMI 1640 medium, liquid phase detection); format: physicochemical
# Experimental: Experimental method: Samples A-E were prepared and detected by liquid phase. Details are as follows.
# A: The purity of compound E was detected by liquid phase, and the peak time of compound E was judged.
# B: Liquid detection RPMI 1640 medium
# C: Compound E was dissolved in the RPMI 1640 medium and detected by liquid phase.
# D: Compound E was dissolved in the RPMI 1640 medium and placed in the incubator for 24 hours before detection by liquid phase.
# E: Compound E was dissolved in the RPMI 1640 medium and placed in the incubator for 48 hours before detection by liquid phase.
# NF-κB p65 = assay: Western blot, NF-κB signaling pathway: NF-κB p65; format: cell-based, human; details: HCT116, 2.5, 5 and 10 μM, 24 h
# Text: The NF-κB pathway plays an important role in a variety of cellular functions, including cell growth, apoptosis, and tumorigenesis ([Hwang et al., 2012]). Interfering with NF-κB signaling can inhibit tumor cell proliferation and metastasis ([Yenmis et al., 2021]). Therefore, NF-κB inhibitors are considered as potential anticancer drugs ([Wang et al., 2017]).
# FIGURE 8 Effect of compound E on NF-κB signaling pathway in HCT116 cells. Cells were pretreated with the various concentrations of compound E (2.5, 5 and 10 μM) for 24 h. The expression of phospho-NF-κB p65, NF-κB p65, phospho-IκB, IκB were analyzed by Western blot. ***p < 0.001, **p < 0.01, *p < 0.05 vs. control group. The error bars represent the mean ± SD for three independent experiments.
# HCT116 cells were cultured with different concentrations of compound E for 24 h. Then, the floating cells were collected and washed twice with ice-cold PBS. Add cold RIPA buffer. After the cells were lysed on ice for 20 min, the lysate was centrifuged at 12,000 rpm for 15 min at 4°C. The BCA method determines the protein concentration. Separated by SDS/PAGE electrophoresis and transferred to a nitrocellulose filter membrane for Western blot analysis. The membrane was blocked with PBS containing 5% skim milk at room temperature for 2 h. […] The protein is detected by electrochemiluminescence (Bio-Rad, CA, United State).
# HCT116 cells = assay: Colony formation assay; format: cell-based, human; details: HCT116, 2.5, 5, 10 μM, 7 days
# Experimental: The colony-forming cell assay was used to determine the ability of cells to proliferate and differentiate into colonies and thereby to investigate the anti-proliferative efficacy of compound E ([Lei et al., 2015]).
# FIGURE 3 Colony formation of HCT116 cells inhibited by compound E. (A) HCT116 cells were incubated with varying concentrations of E (0, 2.5, 5, 10 μM) and stained with crystal violet. (B) The micrographic differences between the colonies. Images were taken of stained single colonies observed under a microscope.
# Exponentially growing HCT116 cells (600 cells per well) were plated on 6-well plates with Roswell Park Memorial Institute (RPMI) 1,640 medium containing 10% fetal bovine serum (FBS). After incubating for 12 h, replace with fresh medium. Then, the cells were treated with different concentrations of compound E (2.5, 5 and 10 μM) dissolved in DMSO. Some cells only use DMSO as a negative control. Then incubate for another 7 days. Finally, the cells were fixed with 95% ethanol for 25 min, stained with 0.1% crystal violet for 15 min at room temperature, and then washed with PBS until the […] were completely removed.
smiles,measurement,setting,value
"CC1(C)CC[C@]2(C(=O)OCCn3nnnc3-c3ccccc3)[C@H](O)C[C@]3(C)C(=CC[C@@H]4[C@@]5(C)CC[C@H](O)[C@@](C)(C=O)[C@@H]5CC[C@]43C)[C@@H]2C1 [Compound E, 2-(5-phenyl-1H-tetrazol-1-yl)ethyl (4aR,5R,6aS,6bR,8aR,9S,10S,12aR,12bR,14bS)-9-formyl-5,10-dihydroxy-2,2,6a,6b,9,12a-hexamethyl-1,3,4,5,6,6a,6b,7,8,8a,9,10,11,12,12a,12b,13,14b-octadecahydropicene-4a (2H)-carboxylate]",IC50 values HCT116,[1]; 48 h incubation,strong activity
same,IC50,"[1]; Homo sapiens, HCT-116, 48 h incubation",2.46 ± 0.44 µM
same,IC50 values BEL7402,[2]; 48 h incubation,strong activity
same,IC50,"[2]; Homo sapiens, Bel-7402, 48 h incubation",6.89 ± 1.69 µM
same,content of compound E (HPLC peak),[3]; after 24 hours in incubator,20.495%
same,content of compound E (HPLC peak),[3]; after 48 hours in incubator,19.557%
same,content of compound E (HPLC peak),[3]; check directly/0 hours,20.461%
same,stability under pharmacological experimental conditions,"[3]; incubator, up to 48 hours",high stability
same,effect on NF-κB p65,NF-κB p65,no inhibitory effect
same,colony formation (number and size of colonies),HCT116 cells,significantly decreased the number and size of colonies in a concentration-dependent manner
